Results reported in patent publication US6331565A, “Dicaffeoylquinic acid for treating hepatitis B and the diseases associated with retrovirus, and the new caffeoylquinic acid derivatives” (Institute of Radiation Medicine Academy of Military Medical …, priority 1996, dated 2001).
Like-named read-outs stand apart in the source and are kept apart here.

Experiments:
[1] = test system: HBV DNA replication; details: FIG. 1; 15.625-250 ug/ml
Experimental: Hep G2 2.2.15 cell lines were maintained in DMEM supplemented with 10% fetal calf serum (FCS) and 100 units.ml^-1 of penicillin and streptomycin, 380 μg.ml^-1 of G418 in a humidified atmosphere containing 5% CO2 at 37° C. The cultures were passenged by trypsinization every 4 days. For bioassays cells were plated in 24-well plates at a density of 1.0×10^5 cells/well. Two-day-old cultures were treated with various concentrations of drug in DMEM containing 10 FCS. The drug was left in the medium for 4 days, and then the medium was aspirated and the fresh medium containing the same concentration of drug was added. At the end of three 4-day periods, the cells were harvested. The aliquot of the culture medium was used for the estimation of the HBV surface antigen (HBsAg) and HBV e antigen (HBeAg).
DNA extraction in 2.2.15 cells: Total DNA was isolated from 2.2.15 cells, cells was washed in PBS and lysed in a solution containing 50 mmol.l^-1 Tris-HCl (pH 7.5). 10 mmol.l^-1 EDTA. 1% SDS and 50 μg.ml^-1 of proteinase K (Sigma). After incubation at 37° C. for 4 h, total DNA was extracted in phenol-chloroform-isoamyl alcohol (25:24:1) followed by two extractions with chloroform-isoamyl alcohol. The DNA was precipitated with 1/10 vol NaOAc and 2.5 vol ethanol overnight at -70° C. […]

[2] = test system: DHBV; test: anti-DHBV test in ducks (serum DHBV DNA dot blot); type: in vivo, DHBV in Peking (Beijing) ducks
Experimental: One-day-old ducklings were infected with a 200 μl intravenous injection of DHBV-positive serum containing 10^11 viral genome equivalents per milliliter. Treatment began when ducklings were 7 days old. A total 89 seven-day-old viraemic ducks were distributed at random into five groups. […] Post-treatment follow-up was carried over a period of 5 days. Blood samples were obtained repectively from the leg vein of all ducks and stored at -70° C. after serum separation, prior to treatment, weekly during the treatment, and for 5 days after cessation of treatment. They were screened for presence of DHBV DNA by dot blot hybridization.
DHBV DNA in serum was analyzed by molecular hybridization using full length DHBV DNA clones in PB325. The DHBV DNA insert was purified by agarose gel electrophoresis after digestion with EcoRI. The DHBV DNA was radiolabeled with α^32 P-dCTP random oligopriming with Klenow fragment. Dot blot hybridization was carried out by the method of Scotto et al. Briefly, an aliquot (200 μl) serum was spotted onto a nylon membrane (Hybond-N, Amersham International, England) in dot blot manifold and denatured with 0.5 M NaOH--NaCl at room temperature for 30 min. Each spotted sample was neutralized in 1M Tris.HCl-1.5M NaCl (pH8.0). The DNA on the membrane was fixed by heating at 80° C. for 2 h, and prehybridization at 37° C. overnight in 50% formamide, 5×Denhardt's, 6×SSC,[…], 0.5% SDS and 10 mg/ml of calf thymus DNA. Hybridization was initiated by adding DHBV [^32 P] DNA probes at 10^6 cpm/ml at the same prehybridization conditions overnight. The membrane was washed in 3×SSC-0.1% SDS at room temperature, 42° C. and 65° C. for 10 min respectively. After hybridization the membranes were air-dried and exposed for periods of up to 14 days at -70° C. with Kodak film with an enhancer screen. The amount of viral DNA were assayed by both densitometry and image analysis of autoradiographic membranes.

[3] = test system: HIV-1; test: microbe, parasite or virus in culture; details: Human immunodeficiency virus 1, MT4, in Homo sapiens, 168 h
Experimental: (§1) A human T-cell leukemia cell line. MT4 cells, was used in this study. It was maintained in RPMI-1640 medium supplemented with 10% FCS. 100 U/ml of penicillin, and 100 μg/ml of streptomycin at 37° C. in a humidified atmosphere of 5% CO2. Cell cultures were split into fresh medium every 4 days.
HIV-1 virus was propagated in MT4 cells. The cell-free supernatants of HIV-1 infected MT4 cell culture were used as virus stocks and frozen at -80° C. until used. The 50% tissue culture infected dose (TCID50) of the cell-free virus stock was determined by end-point titration with MT4 cells in 96-well microdilution plates.
(§2) After 4 h, 100 μl of solvent (10% Triton X-100 and 0.4% HCl isopropanol)was added to cultures to solubilizes formazan. After an overnight incubation, the absorbency of each well was measured using a microplate reader (Bio-Rad, model 450) at 560 nm.
(§3) MT4 cells in culture were counted by trypan blue exclusion method. The MT4 cells suspended in a small volume of RPMI-1640 medium without FCS and infected with HIV-1 at 200 TCID50 viruses per 10^6 cells. The mixture of MT4 cells and virus was subsequently incubated at 37° C. in a humidified atmosphere of 5% CO2 for 1 hr to allow virus to adsorbed to cells. Unabsorbed viruses were then removed by washing one with […] of the fresh medium and centrifuged at 1000 rpm for ten minutes. The cells were suspended in the medium and distributed into 12-well microculture plates (10^6 cells/3 ml/well). […] After 4-day incubation at 37° C. in a humidified atmosphere containing 5% CO2 the medium was aspirated and the fresh medium containing the same concentration of drug was added.
After 7-day incubation the viable cells was evaluated by MTT method as described above.

[4] = test system: MT4 cells; test: Cytotoxicity in uninfected MT4 cells (MTT); type: cell-based, human; details: 1000 μg.ml^-1, MTT
Experimental: as §1, §2

[5] = test system: 2.2.15 cells; test: Cytotoxicity in 2.2.15 cells (MTT); type: cell-based
Experimental: The cultures were passenged by trypsinization every 4 days.
The viability of cells was determined by MTT.

[6] = Tolerance and general health in ducks; details: duck, in vivo; preliminary results; read-out: maximal tolerance dose in duck
[7] = test system: HIV-1 RT
Experimental: as §3
The presence of HIV-1 RT in the supernatants of infected, drug-treated and infected, no drug treated MT4 cell culture was assayed. Cell culture fluids was clarified at 1000 rpm for 10 minutes to remove cellular debris. The supernatant samples (20 μl) in duplicate transferred to 5 ml plastic Falcon tubes, 10 μl of virus solubilization buffer [0.5% Triton X-100 in 0.8 M NaCl, 0.5 mM phenylmethysulfonyfluoride, 20% (v/v) glycerol and 50 mM Tris-HCl, pH 7.8] were then added to solubilize the viral particles in the supernatant samples and to release RT located in the viral core. 170 μl of reaction mixture (cocktail I) [52 mM Tris-HCl (pH 7.8), 10 mM MgCl2, 2 mM dithiothreitol, 5 μg of poly(rA)-oligo(dT)per ml. 83 μg of dATP per ml, and 3 μCi of [^3 H]TTP per ml] was then added and incubated at 37° C. for 2 hr. The incorporation of [^3 H]TTP into DNA with poly(rA)-olgio(dT) template primer by viral RT was assessed by trichloroacetic (TCA) precipitation and filtered over a […] diameter glass fiber filter. […] of cold 10% TCA was added to precipitate DNA. The precipitate DNA was then collected on the filters in a Millipore sampling manifold, and was washed with additional 5 volumes of 5% TCA and 2 volumes of 70% ethanol. Radioactivity of the DNA on the filters was determined by a scintillation counter.

## O=C(/C=C/c1ccc(O)c(O)c1)OC1CC(OC(=O)/C=C/c2ccc(O)c(O)c2)(C(=O)O)CC(O)C1O (stereo not drawn) [Compound A, 1,5-di-O-caffeoylquinic acid]
[1]
  inhibition of HBV DNA replication: inhibit HBV DNA replication in a dose dependent manner
[2]; 50 mg.kg of body weight^-1.day^-1
  inhibition of DHBV DNA: strange inhibition of DHBV DNA
[2]; 50 mg.kg of body weight^-1.day^-1, day 14
  inhibition of viraemia: 87%
[3]; read-out: Inhibit rate (%), 1.56 μg/ml, 1000 TCID50 (first column pair), 7 days
  inhibition at 1.56 µg/mL: 7.2%
[3]; read-out: Inhibit rate (%), 1.56 μg/ml, 1000 TCID50 (second column pair), 7 days
  inhibition at 1.56 µg/mL: 8.1%
[3]; read-out: Inhibit rate (%), 3.12 μg/ml, 1000 TCID50 (first column pair), 7 days
  inhibition at 3.12 µg/mL: 21.1%
[3]; read-out: Inhibit rate (%), 3.12 μg/ml, 1000 TCID50 (second column pair), 7 days
  inhibition at 3.12 µg/mL: 19%
[3]; read-out: Inhibit rate (%), 6.25 μg/ml, 1000 TCID50 (first column pair), 7 days
  inhibition at 6.25 µg/mL: 40%
[3]; read-out: Inhibit rate (%), 6.25 μg/ml, 1000 TCID50 (second column pair), 7 days
  inhibition at 6.25 µg/mL: 44.3%
[3]; read-out: Inhibit rate (%), 12.5 μg/ml, 1000 TCID50 (first column pair), 7 days
  inhibition at 12.5 µg/mL: 55%
[3]; read-out: Inhibit rate (%), 12.5 μg/ml, 1000 TCID50 (second column pair), 7 days
  inhibition at 12.5 µg/mL: 56.5%
[3]; read-out: Inhibit rate (%), 25 μg/ml, 1000 TCID50 (first column pair), 7 days
  inhibition at 25 µg/mL: 69.9%
[3]; read-out: Inhibit rate (%), 25 μg/ml, 1000 TCID50 (second column pair), 7 days
  inhibition at 25 µg/mL: 63.7%
[3]; read-out: Inhibit rate (%), 50 μg/ml, 1000 TCID50 (first column pair), 7 days
  inhibition at 50 µg/mL: 74.8%
[3]; read-out: Inhibit rate (%), 50 μg/ml, 1000 TCID50 (second column pair), 7 days
  inhibition at 50 µg/mL: 60.6%
[3]; read-out: Inhibit rate (%), 100 μg/ml, 1000 TCID50 (first column pair), 7 days
  inhibition at 100 µg/mL: 61.5%
[3]; read-out: Inhibit rate (%), 100 μg/ml, 1000 TCID50 (second column pair), 7 days
  inhibition at 100 µg/mL: 57.7%
[4]
  cytotoxicity to MT4 cells: markedly cytotoxic
[5]; 1.0 μg.ml^-1
  toxicity to 2.2.15 cells: did not show toxicity
[5]; 500 μg/ml
  harmful effects on 2.2.15 cells: no obvious harmful effects
[6]
  MTD: > 4000 mg/kg
[7]
  IC50, RT in MT4 cells infected with HIV: 17.1 µg/mL
[7]; 1 μg/ml
  Inhibitory rate(%): 22.8 ± 1.9%
  cpm: 6051 ± 91 cpm
[7]; 10 μg/ml
  Inhibitory rate(%): 45.4 ± 0.8%
  cpm: 4283 ± 89 cpm
[7]; 100 μg/ml
  Inhibitory rate(%): 68.7 ± 0.5%
  cpm: 2456 ± 54 cpm
[7]; 1000 μg/ml
  Inhibitory rate(%): 80.5 ± 1.5%
  cpm: 1528 ± 89 cpm
